In patent US20240150377A1, “MODULATORS OF CYSTIC FIBROSIS TRANSMEMBRANE CONDUCTANCE REGULATOR” (VERTEX PHARMACEUTICALS INCORPORATED, priority 2020, published 2024):
Like-named read-outs stand apart in the source and are kept apart here.

Legend:
CFTR [1] = target: T1, CFTR (Homo sapiens, UniProt P13569, DEL508-508); experiment: HBE assay: Ussing chamber assay of CFTR-mediated short-circuit currents; assay type: cell-based; details: for Emax: read-out: HBE Max activity (%); for activation at 10 µM: read-out: HBE Activity at 10 μM (%)
T1 construct: endogenous in cells; host or cells: primary human bronchial epithelial cells from CF subjects (F508del/MF-HBE), differentiated at air-liquid interface
T1 sequence (P13569 with tags, fused parts or gaps DEL508-508): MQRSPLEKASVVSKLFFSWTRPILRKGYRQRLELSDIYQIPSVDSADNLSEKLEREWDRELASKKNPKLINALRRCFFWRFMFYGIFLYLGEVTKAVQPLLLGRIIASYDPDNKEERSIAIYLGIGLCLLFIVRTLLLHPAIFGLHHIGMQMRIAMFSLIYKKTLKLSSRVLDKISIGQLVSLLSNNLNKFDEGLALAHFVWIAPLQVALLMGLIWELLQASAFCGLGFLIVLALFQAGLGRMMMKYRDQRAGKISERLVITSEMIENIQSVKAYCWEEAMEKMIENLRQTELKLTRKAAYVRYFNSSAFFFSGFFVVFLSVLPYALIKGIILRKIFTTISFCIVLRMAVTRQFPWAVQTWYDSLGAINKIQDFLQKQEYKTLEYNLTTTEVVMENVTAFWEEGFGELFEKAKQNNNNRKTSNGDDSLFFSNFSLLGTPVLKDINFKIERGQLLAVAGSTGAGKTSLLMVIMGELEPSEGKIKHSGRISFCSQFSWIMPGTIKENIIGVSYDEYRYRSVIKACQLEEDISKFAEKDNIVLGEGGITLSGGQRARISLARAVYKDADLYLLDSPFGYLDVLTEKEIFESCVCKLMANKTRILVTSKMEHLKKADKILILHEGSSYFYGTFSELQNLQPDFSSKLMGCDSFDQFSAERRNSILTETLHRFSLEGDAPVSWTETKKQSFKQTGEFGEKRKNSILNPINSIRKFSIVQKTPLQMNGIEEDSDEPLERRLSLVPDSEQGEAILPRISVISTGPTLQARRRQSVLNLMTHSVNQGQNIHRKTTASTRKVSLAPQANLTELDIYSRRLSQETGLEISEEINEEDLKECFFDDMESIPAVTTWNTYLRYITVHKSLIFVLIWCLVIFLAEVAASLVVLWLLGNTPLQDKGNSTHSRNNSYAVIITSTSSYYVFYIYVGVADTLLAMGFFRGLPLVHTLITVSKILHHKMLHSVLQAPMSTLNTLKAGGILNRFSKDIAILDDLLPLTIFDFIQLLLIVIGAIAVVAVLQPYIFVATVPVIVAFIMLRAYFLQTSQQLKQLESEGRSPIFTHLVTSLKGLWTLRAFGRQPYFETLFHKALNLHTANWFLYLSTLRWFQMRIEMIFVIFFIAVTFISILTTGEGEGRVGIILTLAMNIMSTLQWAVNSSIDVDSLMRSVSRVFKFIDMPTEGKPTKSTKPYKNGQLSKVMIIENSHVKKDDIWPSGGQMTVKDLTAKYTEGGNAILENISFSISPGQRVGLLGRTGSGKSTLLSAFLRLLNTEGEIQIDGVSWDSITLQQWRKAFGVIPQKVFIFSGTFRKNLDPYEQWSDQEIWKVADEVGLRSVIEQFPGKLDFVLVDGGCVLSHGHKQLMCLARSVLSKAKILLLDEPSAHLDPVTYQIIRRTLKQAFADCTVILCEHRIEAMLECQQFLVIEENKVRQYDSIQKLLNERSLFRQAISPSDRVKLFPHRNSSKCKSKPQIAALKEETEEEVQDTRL
Procedure, shortened: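 CFTR-mediated Isc (μA/cm²) equals the peak response to apical 20 μM forskolin minus the residual after a 20 μM each BPO/GlyH-101/CFTR inhibitor 172 cocktail, recorded in Ussing chambers at Vhold 0 mV, 37 °C, pH 7.4, with 30 μM apical amiloride. Cells were F508del/MF HBE cultures preincubated 18-24 h with corrector (concentration range or 10 μM) plus 1 μM ivacaftor in 20% human serum.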

CFTR [2] = target: T1, CFTR; experiment: HBE2 assay: Ussing chamber assay of CFTR-mediated short-circuit currents; assay type: cell-based; details: F508del/MF-HBE cells, with 44 nM potentiator, 18-24 hours, 20% human serum; for Emax: read-out: HBE2 Max activity (%)
Procedure, shortened: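 F508del/MF-HBE cultured >14 days at air-liquid interface, mounted in Ussing chambers; transepithelial short-circuit current recorded under voltage clamp (Vhold=0 mV) at 37 °C. CFTR-mediated ISC (μA/cm^2) taken as peak forskolin response relative to steady-state current after inhibition; corrector activity assessed this way.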

HBE2 Activity at 3 μM (%) (CFTR [2])	activation at 10 µM (CFTR [1]; HBE assay, 10 μM) [%]	SMILES	further results
+++ (+++ is >60+)		COC[C@@H](C)N(C)c1cncc(CN2C(=O)c3cccc(c3)S(=O)(=O)Nc3nc(cc(-c4c(C)cccc4C)n3)OC[C@H]2CC(C)(C)C)n1 [Compound 1493]	EC50 (CFTR [1]; HBE assay, read-out: HBE EC50): < 1 µM; Emax (CFTR [1]; HBE assay): > 60%
+++ (+++ is >60+)	> 60	CC[C@H](C)Oc1cnc(CN2C(=O)c3cccc(c3)S(=O)(=O)Nc3nc(cc(-c4c(C)cccc4C)n3)OC[C@H]2CCC(C)(C)C)nc1 [Compound 1547]	
	> 60	Cc1cccc(C)c1-c1cc2nc(n1)NS(=O)(=O)c1cccc(c1)C(=O)N(Cc1cncc(N(C)CC(C)C)n1)[C@H](CC(C)(C)C)CO2 [Compound 1519]	EC50 (CFTR [2]): < 1000 nM; Emax (CFTR [2]): > 60%
	> 60	Cc1cccc(C)c1-c1cc2nc(n1)NS(=O)(=O)c1cccc(c1)C(=O)N(Cc1ncc(N(C)C(=O)OC(C)C)cn1)[C@H](CC(C)(C)C)CO2 [Compound 1518]	Emax (CFTR [2]): > 60%
+++ (+++ is >60+)	> 60	COC(=O)N(C)c1cnc(CN2C(=O)c3cccc(c3)S(=O)(=O)Nc3nc(cc(-c4c(C)cccc4C)n3)OC[C@H]2CC(C)(C)C)nc1 [Compound 1517]	
+++ (+++ is >60+)	> 60	COCC1(CN(C)c2cncc(CN3C(=O)c4cccc(c4)S(=O)(=O)Nc4nc(cc(-c5c(C)cccc5C)n4)OC[C@H]3CC(C)(C)C)n2)CC1 [Compound 1492]	EC50 (CFTR [1]; HBE assay, read-out: HBE EC50): < 1 µM; Emax (CFTR [1]; HBE assay): > 60%
+++ (+++ is >60+)	> 60	Cc1cccc(C)c1-c1cc2nc(n1)NS(=O)(=O)c1cccc(c1)C(=O)N(Cc1cncc(N(C)CC3CC3)n1)[C@H](CC(C)(C)C)CO2 [Compound 1507]	

Further lines, the compound ahead of its results:

SMILES	HBE2 Activity at 3 μM (%) (CFTR [2])	activation at 10 µM (CFTR [1]; HBE assay, 10 μM) [%]	further results
CC[C@@H]1CCCN1c1cncc(CN2C(=O)c3cccc(c3)S(=O)(=O)Nc3nc(cc(-c4c(C)cccc4C)n3)OC[C@H]2CC(C)(C)C)n1 [Compound 1496]	+++ (+++ is >60+)		EC50 (CFTR [1]; HBE assay, read-out: HBE EC50): < 1 µM; Emax (CFTR [1]; HBE assay): > 60%
CC[C@H](C)Oc1cnc(CN2C(=O)c3cccc(c3)S(=O)(=O)Nc3nc(cc(-c4c(C)cccc4C)n3)OC[C@H]2CC2(C)CC2)nc1 [Compound 1546]	+++ (+++ is >60+)	> 60	
CCC(C)Oc1cnc(CN2C(=O)c3cccc(c3)S(=O)(=O)Nc3nc(cc(-c4c(C)cccc4C)n3)OC[C@H]2CCC(C)C)nc1 (stereo partly drawn) [Compound 1528]	+++ (+++ is >60+)	> 60	
Cc1cccc(C)c1-c1cc2nc(n1)NS(=O)(=O)c1cccc(c1)C(=O)N(Cc1cncc(N3CCC[C@H]3C3CC3)n1)[C@H](CC(C)(C)C)CO2 [Compound 1495]	+++ (+++ is >60+)		EC50 (CFTR [1]; HBE EC50 (μM), HBE assay): < 1 µM; Emax (CFTR [1]): > 60%
Cc1cccc(C)c1-c1cc2nc(n1)NS(=O)(=O)c1cccc(c1)C(=O)N(Cc1ncc(N3CC(C)(C)C3)cn1)[C@H](CC1(C(F)(F)F)CC1)CO2 [Compound 1529]	+++ (+++ is >60+)	> 60	
Cc1cccc(C)c1-c1cc2nc(n1)NS(=O)(=O)c1cccc(c1)C(=O)N(Cc1cncc(N3CCCC[C@H]3C)n1)[C@H](CC(C)(C)C)CO2 [Compound 1506]			activation at 10 µM (CFTR [1]): > 60%; EC50 (CFTR [2]): < 1000 nM; Emax (CFTR [2]): > 60%
Cc1cccc(C)c1-c1cc2nc(n1)NS(=O)(=O)c1cccc(c1)C(=O)N(Cc1ncc(N3CC(C)(C)C3)cn1)[C@H](CC(C)(C)C(F)(F)F)CO2 [Compound 1520]	+++ (+++ is >60+)	> 60	
Cc1cccc(C)c1-c1cc2nc(n1)NS(=O)(=O)c1cccc(c1)C(=O)N(Cc1ccnc(N(C)C3CC4(CC4)C3)n1)[C@H](CC(C)(C)C)CO2 [Compound 1448]		> 60	EC50 (CFTR [2]): < 1000 nM; Emax (CFTR [2]): > 60%
Cc1cccc(C)c1-c1cc2nc(n1)NS(=O)(=O)c1cccc(c1)C(=O)N(Cc1ccc3cc(C4CC4)n(C)c3n1)[C@H](CC(C)(C)C)CO2 [Compound 1304, (11R)-12-[(2-Cyclopropyl-1-methyl-pyrrolo[2,3-b]pyridin-6-yl)methyl]-6-(2,6-dimethylphenyl)-11-(2,2-dimethylpropyl)-2,2-dioxo-9-oxa-2λ^6-thia-3,5,12,19-tetrazatricyclo[12.3.1.14,8]nonadeca-1(18),4(19),5,7,14,16-hexaen-13-one]	+++ (+++ is >60+)	> 60	
CCCOc1cnc(CN2C(=O)c3cccc(c3)S(=O)(=O)Nc3nc(cc(-c4c(C)cccc4C)n3)OC[C@H]2CC(C)C)nc1 [Compound 1523]	+++ (+++ is >60+)	> 60	
